From patent US5872150A, “Treatment of prostate disease with a nonsteroidal anti-androgenic compound” (Merck & Co., Inc., priority 1997, dated 1999)
“Also recorded” adds a separate entry of the source.

Columns and labels:
[1] = test system: probasin luciferase reporter gene; assay: Ligand dependent transcription assay, CV1 cells with probasin reporter gene and control plasmid, no AR (pPBluc); assay type: cell-based, rat
Description: Ligand dependent transcription assays were performed as described in Schnmidt et al. "Identification of a new member of the steroid hormone receptor superfamily that is activated by a peroxisome proliferator and fatty acids," Mol. Endocrinol. […] A luciferase cDNA expressed under the control of the promoter region of the probasin gene that confers androgen receptor dependent transcription was used as a reporter gene, see Rennie et al. "Characterization of two cis-acting DNA elements involved in the androgen regulation of the probasin gene" Mol Endocrinol. […] Transient transfection of CV1 cells was performed by plating cells (1.5×10^5 per mL) into 12 well dishes in phenol red-free medium supplemented with 10% fetal calf serum treated with activated charcoal to remove endogenous steroids. Cells were then transfected the following day by addition of a calcium phosphate precipitate of plasmid DNA. Cells were then washed with fresh media after an overnight incubation and ligands were added. Cell extracts were prepared after forty eight hours and assayed for luciferase enzyme activity using the Luciferase Assay System (Promega). Each transfection was performed in triplicate and the […] of each sample was measured using the AutoChemiluminometer (Berthold).

androgen receptor [2] = biological target: T1, androgen receptor (Homo sapiens, UniProt P10275); assay: Ligand dependent transcription assay, CV1 cells co-transfected with AR and probasin luciferase reporter (pPBluc + AR); assay type: cell-based; set-up: expressed in transfected cells; host or cells: CV1 cells, transient co-transfection of pSGAR with the probasin-luciferase reporter pPBluc
T1 sequence (P10275 1-920): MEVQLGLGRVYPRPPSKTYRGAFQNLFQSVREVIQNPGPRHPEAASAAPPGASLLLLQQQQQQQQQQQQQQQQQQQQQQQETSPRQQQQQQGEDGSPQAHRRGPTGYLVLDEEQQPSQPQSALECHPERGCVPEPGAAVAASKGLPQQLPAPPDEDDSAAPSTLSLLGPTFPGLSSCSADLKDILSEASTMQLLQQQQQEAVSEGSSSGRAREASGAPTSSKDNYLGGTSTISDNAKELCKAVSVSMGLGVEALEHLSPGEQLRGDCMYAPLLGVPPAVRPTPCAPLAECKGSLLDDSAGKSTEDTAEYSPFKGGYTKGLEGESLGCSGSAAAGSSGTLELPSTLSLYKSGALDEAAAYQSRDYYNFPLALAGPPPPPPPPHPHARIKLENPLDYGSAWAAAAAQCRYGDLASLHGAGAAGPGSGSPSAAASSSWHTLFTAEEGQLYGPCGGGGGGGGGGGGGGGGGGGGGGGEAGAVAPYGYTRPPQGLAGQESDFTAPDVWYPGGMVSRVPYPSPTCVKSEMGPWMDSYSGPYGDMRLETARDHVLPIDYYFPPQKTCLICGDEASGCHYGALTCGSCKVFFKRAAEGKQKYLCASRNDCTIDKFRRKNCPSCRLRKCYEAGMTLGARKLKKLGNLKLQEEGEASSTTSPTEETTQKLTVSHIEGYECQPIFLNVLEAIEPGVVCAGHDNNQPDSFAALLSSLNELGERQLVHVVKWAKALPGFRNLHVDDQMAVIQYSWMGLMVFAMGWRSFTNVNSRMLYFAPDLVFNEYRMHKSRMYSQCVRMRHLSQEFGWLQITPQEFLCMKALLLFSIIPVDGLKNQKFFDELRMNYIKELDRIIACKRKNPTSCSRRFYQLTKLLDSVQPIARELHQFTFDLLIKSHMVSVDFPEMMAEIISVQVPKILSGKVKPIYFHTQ
Description: FIG. 2 is a graph showing the effect of N-(4-chlorophenyl)-(Z,Z)-2,3-bis(cyclopropyl-methylene)cyclopentane carboxamide on the activation of the androgen receptor in CV1 cells, as described in Example 4.
Ligand dependent transcription assays were performed as described in Schnmidt et al. "Identification of a new member of the steroid hormone receptor superfamily that is activated by a peroxisome proliferator and fatty acids," Mol. Endocrinol. 6:1634-1641 (1992). A luciferase cDNA expressed under the control of the promoter region of the probasin gene that confers androgen receptor dependent transcription was used as a reporter gene, see Rennie et al. "Characterization of two cis-acting DNA elements involved in the androgen regulation of the probasin gene" Mol Endocrinol. 7:23-36 (1993). The promoter region, -426 to +40 of the rat probasin gene was amplified by polymerase chain reaction (PCR) and inserted upstream of the luciferase cDNA of pGL3 Basic plasmid (Promega). The expression vector pSGAR that expressed the normal human AR was used as a source of receptor, see, Chang et al. "Molecular cloning of human and rat complementary DNA encoding androgen receptors," Science 240:324-326 (1988). Transient transfection of CV1 cells was performed by plating cells (1.5×10^5 per mL) into 12 well dishes in phenol red-free medium supplemented with 10% fetal calf serum treated with activated charcoal to remove endogenous steroids. Cells were then transfected the following day by addition of a calcium phosphate precipitate of plasmid DNA. Cells were then washed with fresh media after an overnight incubation and ligands were added. Cell extracts were prepared after forty eight hours and assayed for luciferase enzyme activity using the Luciferase Assay System (Promega). Each transfection was performed in triplicate and the […] of each sample was measured using the AutoChemiluminometer (Berthold).

DDT1 cells = assay: DDT1 Assay: androgen (testosterone) dependent growth of DDT1 cells, MTS proliferation; assay type: cell-based, Syrian hamster
Description: Cells were plated in a 96 well plate at 2,000 cells/well in DFITS+0.1% fetal calf serum. […] Cell growth data were normalized to the greatest number of cells and error bars represent +/- one standard error of the mean (sem).
Media was charged every 48 hours. Cells were plated at ~2,000/well in 96-well plates or ~6,000 cells/cm^2 in DMEM: F12 (GIBCO BRL) nutrient mixture (1:)+ITS™ (insulin, transferrin, selenious acid) (Collaborative Biomedical Products/Becton Dickinson Labware) (final concentrations 5 μg/mL insulin, 5 μ/mL transferrin, 5 ng/mL selenious acid) (DFITS media)+0.1% bovine calf serum (Hyclon®, BCS defined, iron supplemented).
After 24 hours, the cells were washed with the same media except without added serum and replaced with fresh serum-free DFITS medium (day 0).
In a typical experiment, cells were plated in sets of 12 in the presence of either a mock ethanol control (0.1-0.2% total volume) or N-(4-chlorophenyl)-(Z,Z)-2,3-bis(cyclopropylmethylene) cyclopentane carboxamide dissolved in 100% ethanol as a 1000X concentrated stock solution. Cell growth was then measured using a CellTiter96™ Non-Radioactive Cell Proliferation Assay (Promega Corporation) according to the manufacturer's protocol using a Bio Kinetics EL 340 microplate reader (BioTek Instruments, Inc.). 3-(4,5-dimethylthiazol-2-yl)-5-(3-carboxyl methoxyphenyl)-2-(4-sulfophenyl)-2H-tetrazolium (MTS) was diluted into media at a final concentration of 333 μg/mL and penazine methosulfate (PMS) was used at a final concentration of 25 μM with a total volume per well of 100 μL. Plates were then incubated for one hour at 37° C. in a humidified 5% CO2 atmosphere.

androgen receptor [3] = biological target: T1, androgen receptor; assay: Binding to the human androgen receptor (hAR), displacement of [3H]-DHT, stable CHO transfectants; set-up: expressed in transfected cells; cytosol, 100,000×g supernatant; conditions: stable transfectants of CHO cells
Description: Binding to the Androgen Receptor
All samples were prepared in duplicate. […] Free steroids were removed by addition of dextran-coated charcoal followed by centrifugation at 3,000×g for fifteen minutes at 4° C.
47: 1080-1088 (1995) except that stable transfectants of CHO cells were employed (gift from Prof. Michael McPhaul Southwestern Medical Center, Dallas, Tex.) that typically express 30-80 fmoles receptor/mg soluble protein.

Row | SMILES | pPBluc, Light Units ± std ([1]; DHT 10^-7 M) [Light Units] | pPBluc, Light Units ± std ([1]; DHT 10^-9 M) [Light Units] | inhibition of transactivation mediated by DHT (androgen receptor [2]; CV1 cells, 10 nM DHT) | luciferase expression from the pPBluc reporter gene, compound alone (androgen receptor [2]; CV1 cells, without DHT) | IC50 (androgen receptor [2]; read-out: Fifty percent inhibition of transactivation) [µM] | antagonism of the action of testosterone on DDT1 cells (DDT1 cells) | inhibition of testosterone-induced DDT1 cell growth, comparison with hydroxyflutamide (DDT1 cells) | effect on testosterone-induced cell proliferation (DDT1 cells; compound at 10 μM with 10 nM testosterone) | effect on cell proliferation, compound alone (DDT1 cells; without testosterone, serum-free medium) | blocking of the binding of 3H-DHT (androgen receptor [3])
1 | C[C@]12CCC(=O)C[C@@H]1CC[C@@H]1[C@@H]2CC[C@]2(C)[C@@H](O)CC[C@@H]12 [DHT, 5α-dihydrotestosterone] | 3300 ± 1100 | 3000 ± 300 | – | – | – | – | – | – | – | –
2 | O=C(Nc1ccc(Cl)cc1)C1CCC(=C/C2CC2)/C1=C\C1CC1 (stereo not shown) [N-(4-chlorophenyl)-(Z,Z)-2,3-bis(cyclopropylmethylene)cyclopentane carboxamide] | – | – | inhibited the transactivation mediated by DHT in a dose dependent manner | did not affect luciferase expression | ~2 | antagonizes the action of testosterone on DDT1 cells | inhibits testosterone-induced DDT1 cell growth in a manner similar to that of hydroxyflutamide | reduced cell proliferation to levels close to that of the ethanol mock control | little or no effect on cell growth by itself; also recorded: little or no effect on cell proliferation | blocks the binding of ^3 H-DHT to the human androgen receptor expressed in stable transfectants of CHO cells at doses comparable to those that antagonize testosterone in DDT1 cells
